This is an account of results in PubChem BioAssay AID651914 (NMMLSC, 2012).

The structures appear in SMILES notation.

The test has as its system AM2.2-GPR32 FAP cells, fluorogen binding, flow cytometry MCF. Kind of test: interference with FAP fluorogen signal – AM2.2 cells, flow cytometry, powder set 5, counter-screen for beta2AR agonist internalization project, dose response (AID 651914).
Regarding `Cc1cccc(C(=O)Nc2ccc(S(=O)(=O)N3CCCCC3C)cc2)c1` (stereo not drawn), the EC50 – broadly, the concentration needed to bring the measured effect to its halfway point – was 2900 nM.
In the case of `CCC(=O)Nc1ccc(S(=O)(=O)N2CCCCC2CC)cc1` (stereo not drawn), the EC50 was 7.5 nM.
In the case of `CN(CC(=O)N1CCN(c2ccc(F)cc2)CC1)S(=O)(=O)c1ccc(Br)cc1`, the EC50 is 410 nM.
